In patent US7323447B2, “Hepatitis C virus inhibitors” (Bristol-Myers Squibb Company, priority 2005, dated 2008):

Assays:
[1] = test system: HCV replicon (Renilla luciferase) in HUH-7 cells; test: HCV replicon luciferase reporter assay; assay type: cell-based, Hepatitis C virus (strain 1b); details: Huh-7, 96 h, 4 days
From the text: As a secondary assay, EC50 determinations from the replicon FRET assay were confirmed in a replicon luciferase reporter assay. Utilization of a replicon luciferase reporter assay was first described by Krieger et al (Krieger N, Lohmann V, and Bartenschlager R, J. Virol. 75(10):4614-4624 (2001)). The replicon construct described for our FRET assay was modified by inserting cDNA encoding a humanized form of the Renilla luciferase gene and a linker sequence fused directly to the 3′-end of the luciferase gene. This insert was introduced into the replicon construct using an Asc1 restriction site located in core, directly upstream of the neomycin marker gene. The adaptive mutation at position 1179 (serine to isoleucine) was also introduced (Blight K J, Kolykhalov, A A, Rice, C M, Science 290(5498): 1972-1974). A stable cell line constitutively expressing this HCV replicon construct was generated as described above. […] Following 4 days in a 37° C./5% CO2 incubator, cells were analyzed for Renilla Luciferase activity using the Promega Dual-Glo Luciferase Assay System. […] Plates were read on a Packard TopCount NXT using a luminescence program.
The percentage inhibition was calculated using the formula below: […]
The values were graphed and analyzed using XLfit to obtain the EC50 value.

[2] = target: T1, HCV NS3/4A protease complex (BMS strain) (UniProt P27958); test: FRET peptide assay to monitor HCV NS3/4A proteolytic activity, BMS strain; assay type: biochemical, Hepatitis C virus (genotype 1a); details: read-out: IC50 Range; HCV NS3/4A enzyme assay; Table 1
T1 construct: other: HCV NS3/4A enzyme assay; said of H77 and J4L6S; fused on or other part: Three-lysine solubilising tail at the NS4A C-terminus and a His tag from pET21b (Ni-NTA purification), for the H77 and J4L6S constructs
T1 sequence (P27958 1027-1657, one chain of several): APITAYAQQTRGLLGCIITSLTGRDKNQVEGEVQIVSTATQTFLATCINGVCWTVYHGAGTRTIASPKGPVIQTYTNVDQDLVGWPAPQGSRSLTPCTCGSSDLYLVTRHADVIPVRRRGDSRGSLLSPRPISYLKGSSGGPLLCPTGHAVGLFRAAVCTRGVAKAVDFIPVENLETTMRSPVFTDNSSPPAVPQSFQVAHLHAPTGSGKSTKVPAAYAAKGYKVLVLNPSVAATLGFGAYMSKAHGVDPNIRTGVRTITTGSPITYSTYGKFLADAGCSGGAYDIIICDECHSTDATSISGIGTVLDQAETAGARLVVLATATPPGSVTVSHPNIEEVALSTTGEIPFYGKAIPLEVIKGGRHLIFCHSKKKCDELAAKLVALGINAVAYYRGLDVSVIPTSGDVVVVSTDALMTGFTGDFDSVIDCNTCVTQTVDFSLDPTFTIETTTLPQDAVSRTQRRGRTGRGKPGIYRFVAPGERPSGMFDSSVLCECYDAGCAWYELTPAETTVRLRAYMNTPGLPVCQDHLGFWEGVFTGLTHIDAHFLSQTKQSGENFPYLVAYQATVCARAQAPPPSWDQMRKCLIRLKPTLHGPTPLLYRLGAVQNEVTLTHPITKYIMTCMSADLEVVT
How it was run: (§1)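 Recombinant NS3/4A (BMS strain, genotype 1a, >90% pure) cleaving FRET depsipeptide RET S1 (EDANS/DABCYL) at 2 μM; enzyme 2-3 nM (300 pM with 50 μg/ml BSA for sensitive runs). Buffer 50 mM HEPES pH 7.5, 0.15 M NaCl, 0.1% Triton, 15% glycerol, 10 mM βME; fluorescence followed in real time.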

[3] = target: T2, HCV NS3/4A protease complex (BMS strain) (UniProt P27958, species not given/STRAIN_BMS); test: as above; assay type: biochemical, Hepatitis C virus (genotype 1a); details: read-out: IC50 against the NS3/4A BMS strain in the enzyme assay; BMS strain
T2 construct: other: BMS strain; said of H77 and J4L6S; These are given only for the H77 and J4L6S constructs
T2 sequence (P27958 1027-1657, stated change not applied, one chain of several): as the sequence (P27958 1027-1657, one chain of several) above
How it was run: as §1

C=C[C@@H]1C[C@]1(NC(=O)[C@@H]1C[C@@H](OC(=O)N2Cc3cccc(F)c3C2)CN1C(=O)[C@@H](OC(=O)NC(C)(C)C)C(C)(C)C)C(=O)NS(=O)(=O)C1CC1 [Example 56Compound 56]
EC50 [1]: 247 nM | IC50 [2]: < 100 nM | IC50 [3]: 99 nM
